Measurements from patent publication US20120101277A1, “CRYSTALLINE FORM OF POSACONAZOLE” (SANDOZ AG, priority 2009, published 2012).

Key:
[1] = under the conditions investigated in WO 99/18097; cited from earlier work
[2] = Moisture sorption isotherm (SPS-11 moisture sorption analyzer); format: physicochemical
Procedure: The moisture sorption isotherm was recorded with a SPS-11 moisture sorption analyzer (MD Mess-technik, Ulm, D). The measurement cycle was started at 0% relative humidity (RH), increased in 10% steps up to 90% RH and in a 5% step up to 95% RH. The equilibrium condition for each step was set to a constant mass±0.003% over 49 min. The temperature was 25±0.1° C.
At ambient conditions form II-S contains approximately 1 mol water (monohydrate). […] The maximum water content peaks at 5.2% at 90% relative humidity, which corresponds to a water mol ratio of 2.0 (FIG. 4).

SMILES	stability of the crystalline form [1]	water content at ambient conditions ([2]; ambient conditions, per mole posaconazole (monohydrate))	water mol ratio at maximum water content ([2]; at 90% relative humidity, 25 °C, corresponds to the 5.2% water content)	step of water uptake/loss ([2]; between 0 and 10% relative humidity)	maximum water content ([2]; moisture sorption isotherm, at 90% relative humidity, 25 °C) [%]
CC[C@@H]([C@H](C)O)n1ncn(-c2ccc(N3CCN(c4ccc(OC[C@@H]5CO[C@@](Cn6cncn6)(c6ccc(F)cc6F)C5)cc4)CC3)cc2)c1=O [form II, posaconazole]	unstable				
CC[C@@H]([C@H](C)O)n1ncn(-c2ccc(N3CCN(c4ccc(OC[C@@H]5CO[C@@](Cn6cncn6)(c6ccc(F)cc6F)C5)cc4)CC3)cc2)c1=O [form II-S, 2,5-anhydro-1,3,4-trideoxy-2-C-(2,4-difluorophenyl)-4-[[4-[4-[4-[1-[(1S,2S)-1-ethyl-2-hydroxypropyl]-1,5-dihydro-5-oxo-4H-1,2,4-triazol-4-yl]phenyl]-1-piperazinyl]phenoxy]methyl]-1-(1H-1,2,4-triazol-1-yl)-D-threo-pentitol]		approximately 1 mol water	2.0	over 0.5 mol water	5.2
